Usually IC50 stands for the point on the concentration scale where inhibition reaches its midpoint.

The target in this test is Cyclin-dependent kinase 5/CDK5 activator 1 (Homo sapiens, UniProt Q00535). In words: Inhibition of full length human CDK5 (1 to 292 residues)/p25 expressed in baculovirus expression system using FL peptide 29 as a substrate preincubated for 30 mins followed by substrate addition incubated for 60 mins in the presence of ATP by mobility shift assay.
Chain of Cyclin-dependent kinase 5/CDK5 activator 1 (Q00535 whole entry, the tested form may be a part): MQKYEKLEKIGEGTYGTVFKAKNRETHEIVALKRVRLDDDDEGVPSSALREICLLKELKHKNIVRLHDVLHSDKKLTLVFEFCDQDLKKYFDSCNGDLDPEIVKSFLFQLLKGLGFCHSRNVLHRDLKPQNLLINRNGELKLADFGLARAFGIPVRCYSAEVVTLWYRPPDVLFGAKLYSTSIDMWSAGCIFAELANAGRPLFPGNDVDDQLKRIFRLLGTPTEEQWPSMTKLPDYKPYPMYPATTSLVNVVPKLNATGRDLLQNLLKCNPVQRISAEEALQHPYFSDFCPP
Chain of Cyclin-dependent kinase 5/CDK5 activator 1 (Q15078 whole entry, further chain, the tested form may be a part): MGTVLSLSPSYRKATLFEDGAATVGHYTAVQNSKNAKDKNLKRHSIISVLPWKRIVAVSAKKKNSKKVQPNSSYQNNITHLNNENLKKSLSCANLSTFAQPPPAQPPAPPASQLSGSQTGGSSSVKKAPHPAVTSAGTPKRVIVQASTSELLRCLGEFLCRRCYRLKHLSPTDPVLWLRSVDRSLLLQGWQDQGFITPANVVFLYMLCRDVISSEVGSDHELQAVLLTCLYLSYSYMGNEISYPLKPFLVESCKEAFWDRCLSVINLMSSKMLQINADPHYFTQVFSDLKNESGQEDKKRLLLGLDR
For the compound `CN1CCC(N(CC(=O)O)c2ccc3cnc(Nc4cccc(S(N)(=O)=O)c4)cc3n2)CC1`, the IC50 is < 10 nM.

Take `CCOC(=O)c1cccc(Nc2cc3nc(SC4CCNCC4)ccc3cn2)c1`: the IC50 was < 10 nM.

For the compound `CN1CCC([C@@](C)(O)c2ccc3cnc(Nc4cccc(C(N)=O)c4)cc3n2)CC1`, the IC50 is < 10 nM.

With `CN1CCC(S(=O)(=O)c2ccc3cnc(Nc4ccc(N5CCCS5(=O)=O)cc4)cc3n2)CC1`, the IC50 was < 10 nM.

Take `CN1CCC([C@@](C)(O)c2ccc3cnc(Nc4ccc(S(C)(=O)=O)cc4)cc3n2)CC1`: the IC50 was < 10 nM.

`CN1CCC(C(=O)c2ccc3cnc(Nc4ccc(-n5cccn5)cc4F)cc3n2)CC1`: the IC50 was < 10 nM.

These data come from ChEMBL document CHEMBL4831533, “Novel Substituted 1,6-Naphthyridines as CDK 5 Inhibitors for Treating Kidney Diseases” (ACS Med Chem Lett, 2021).
